Patent US9181241B2, “Antagonists of chemokine receptors” (ChemoCentryx, Inc., priority 2012, dated 2015)

Assays:
[1] = test system: inflammatory cells recruited to the inflamed synovial fluid of the knee joints; test: Rabbit model of destructive joint inflammation (rabbit LPS study); assay type: in vivo, New Zealand rabbits; conditions: intra-articular LPS 10 ng, dosed orally 2 hours before and 4 hours after LPS, lavage at sixteen hours
Experimental: A rabbit LPS study was conducted essentially as described in Podolin, et al. J. Immunol. 169(11):6435-6444 (2002). Female New Zealand rabbits (approximately 2 kilograms) were treated intra-articularly in both knees with LPS (10 ng). The compound of interest, for example 1.016, (formulated in 1% methocel) or vehicle (1% methocel) was dosed orally at a 5 ml/kg dose volume at two times (2 hours before the intra-articular LPS injection and 4 hours after the intra-articular LPS injection). Sixteen hours after the LPS injection, knees were lavaged and cells counts were performed. Beneficial effects of treatment were determined by reduction in the number of inflammatory cells recruited to the inflamed synovial fluid of the knee joints.

CCR1 = molecular target: T1, CCR1 (Homo sapiens, UniProt P32246); test: Chemotaxis assay (CTX): inhibition of CCR1 mediated migration of THP-1 or monocyte cells; assay type: cell-based; conditions: class symbols; activity for either the chemotaxis assay or binding assay
T1 construct: host or cells: THP-1 cells or isolated human CD14+ monocytes
T1 sequence (P32246 1-355): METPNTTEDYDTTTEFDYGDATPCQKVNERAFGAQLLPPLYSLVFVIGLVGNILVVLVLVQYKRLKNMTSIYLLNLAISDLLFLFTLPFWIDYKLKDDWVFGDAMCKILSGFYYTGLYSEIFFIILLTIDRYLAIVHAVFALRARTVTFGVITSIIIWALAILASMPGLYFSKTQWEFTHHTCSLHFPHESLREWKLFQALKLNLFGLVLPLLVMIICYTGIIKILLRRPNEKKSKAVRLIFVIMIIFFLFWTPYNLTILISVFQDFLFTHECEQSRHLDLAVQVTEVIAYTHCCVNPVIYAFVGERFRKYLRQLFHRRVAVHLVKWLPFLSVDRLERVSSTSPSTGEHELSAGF
Experimental: THP-1 cells were obtained from ATCC (TIB-202) and cultured as a suspension in RPMI-1640 medium supplemented with 2 mM L-glutamine, 1.5 g/L sodium bicarbonate, 4.5 g/L glucose, 10 mM HEPES, 1 mM sodium pyruvate, 0.05% 2-mercaptoethanol and 10% FBS. Cells were grown under 5% CO2/95% air, 100% humidity at 37° C. and subcultured twice weekly at 1:5 (cells were cultured at a density range of 2×10^5 to 2×10^6 cells/mL) and harvested at 1×10^6 cells/mL. THP-1 cells express CCR1 and can be used in CCR1 binding and functional assays.
Monocytes were isolated from human buffy coats using the Miltenyi bead isolation system (Miltenyi, Auburn, Calif.). Briefly, following a Ficoll gradient separation to isolate peripheral blood mononuclear cells, cells were washed with PBS and the red blood cells lysed using standard procedures. Remaining cells were labeled with anti-CD14 antibodies coupled to magnetic beads (Miltenyi Biotech, Auburn, Calif.). Labeled cells were passed through AutoMACS (Miltenyi, Auburn, Calif.) and positive fraction collected. Monocytes express CCR1 and can be used in CCR1 binding and functional assays.
Chemotaxis assays were performed using 5 μm pore polycarbonate, polyvinylpyrrolidone-coated filters in 96-well chemotaxis chambers (Neuroprobe; Gaithersburg, Md.) using chemotaxis buffer (Hank's balanced salt solution (HBSS) and 1% FBS). CCR1 chemokine ligands (i.e., MIP-1α, CCL15/Leukotactin; R&D Systems; Minneapolis, Minn.) are use to evaluate compound mediated inhibition of CCR1 mediated migration. Other chemokines (i.e., SDF-1α; R&D Systems; Minneapolis, Minn.) are used as specificity controls. The lower chamber was loaded with 29 μl of chemokine (i.e., 0.1 nM CCL15/Leukotactin) and varying amounts of compound; the top chamber contained 100,000 THP-1 or monocyte cells in 20 μl. The chambers were incubated 1-2 hours at 37° C., and the number of cells in the lower chamber quantified either by direct cell counts in five high powered fields per well or by the CyQuant assay (Molecular Probes), a fluorescent dye method that measures nucleic acid content, and by measuring with a Spectrafluor Plus (Tecan). The computer program Prism from GraphPad, Inc. (San Diego, Calif.) was used to calculate IC50 values. IC50 values are those compound concentrations required to inhibit the number of cells responding to a CCR1 agonist by 50%.

SMILES	reduction in the number of inflammatory cells recruited to the inflamed synovial fluid of the knee joints [1]	IC50 (CCR1) [µM]
Cc1c(Cl)c(C(F)(F)F)nn1C(CO)C(=O)N1CCCc2c1cnn2-c1ccc(F)cc1 (stereo not drawn) [Example 1.016]	significant reduction in recruited inflammatory cells	–
O=C(Cn1ccc(C(F)(F)F)n1)N1CCCc2c1cnn2-c1ccc(F)cc1	–	< 1
O=C(Cc1nc(C(F)(F)F)c2ccccn12)N1CCCc2c1cnn2-c1ccc(F)cc1	–	< 1
